Measured values: ChEMBL document CHEMBL6074660, “Recent advances in peptoids as promising antimicrobial agents to target diverse microbial species” (Eur J Med Chem, 2024)
pEC50, pIC50: −log10 of the molar value. Numbered stars: 1 amine (or outer) side, 2 acyl side, 3 side chain; on linkers, the order of the positions; unused ones are H or OH. Square brackets hold non-standard residues; d marks the D form. Peptide text beside a SMILES is read from it. dAla(N-(6-guanidinohexyl)) = C[C@@H](NCCCCCCNC(=N)N)C(=O)O; X1 = C[C@@H](C(=O)[*:2])N(CCCCCCN)[*:1]; X2 = C[C@H](C(=O)[*:2])N(CCCCCCN)[*:1]; 2Nal = N[C@@H](Cc1ccc2ccccc2c1)C(=O)O; X5 = C[C@H](C(=O)[*:2])N(CCCCCN)[*:1]; Gly(N-2-aminoethyl) = NCCNCC(=O)O; Nspe = C[C@H](NCC(=O)O)c1ccccc1

tested on: Leishmania mexicana; assay: Antileishmanial activity against Leishmania mexicana amastigotes; type: functional; conditions: read-out: ED50 (the source's name)

SMILES | pEC50
C[C@@H](c1ccccc1)N(CC(N)=O)C(=O)CN(C(=O)CN(CCN)C(=O)CN(C(=O)CN(C(=O)CN(CCN)C(=O)CN(C(=O)CN(C(=O)CN(CCN)C(=O)CN(C(=O)CN(C(=O)CNCCN)[C@@H](C)c1ccccc1)[C@@H](C)c1ccccc1)[C@@H](C)c1ccccc1)[C@@H](C)c1ccccc1)[C@@H](C)c1ccccc1)[C@@H](C)c1ccccc1)[C@@H](C)c1ccccc1 (H-[Gly(N-2-aminoethyl)][Nspe][Nspe][Gly(N-2-aminoethyl)][Nspe][Nspe][Gly(N-2-aminoethyl)][Nspe][Nspe][Gly(N-2-aminoethyl)][Nspe][Nspe]-NH2) | 4.77

molecular target: C-X-C chemokine receptor type 4 (Homo sapiens, UniProt P61073); assay: Inhibition of CXCR4 receptor (unknown origin); conditions: not given
Sequence (P61073 whole entry): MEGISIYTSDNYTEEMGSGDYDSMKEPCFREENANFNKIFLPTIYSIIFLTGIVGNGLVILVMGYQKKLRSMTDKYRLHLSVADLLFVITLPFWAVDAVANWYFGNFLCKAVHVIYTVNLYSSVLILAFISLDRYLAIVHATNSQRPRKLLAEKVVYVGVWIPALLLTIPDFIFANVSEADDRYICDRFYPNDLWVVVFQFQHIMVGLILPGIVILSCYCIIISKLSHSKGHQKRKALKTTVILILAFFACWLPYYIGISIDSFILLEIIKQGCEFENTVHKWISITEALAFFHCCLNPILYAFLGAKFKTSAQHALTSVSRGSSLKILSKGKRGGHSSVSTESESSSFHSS

SMILES | pIC50
C[C@H]1C(=O)N[C@@H](CCCNC(=N)N)C(=O)N[C@@H](Cc2ccc3ccccc3c2)C(=O)NCC(=O)N[C@H](Cc2ccc(O)cc2)C(=O)N1CCCCCCN (cyclo([2Nal]G[dY][X1]R)) | 4.03
C[C@@H]1C(=O)N[C@@H](CCCNC(=N)N)C(=O)N[C@@H](Cc2ccc3ccccc3c2)C(=O)NCC(=O)N[C@H](Cc2ccc(O)cc2)C(=O)N1CCCCCCN (cyclo([2Nal]G[dY][X2]R)) | 6.52
C[C@@H]1C(=O)N[C@@H](CCCNC(=N)N)C(=O)N[C@@H](Cc2ccc3ccccc3c2)C(=O)NCC(=O)N[C@H](Cc2ccc(O)cc2)C(=O)N1CCCCCN (cyclo([2Nal]G[dY][X5]R)) | 5.80
C[C@@H]1C(=O)N[C@@H](CCCNC(=N)N)C(=O)N[C@@H](Cc2ccc3ccccc3c2)C(=O)NCC(=O)N[C@H](Cc2ccc(O)cc2)C(=O)N1CCCCCCNC(=N)N (cyclo([dY][dAla(N-(6-guanidinohexyl))]R[2Nal]G)) | 7.40

tested on: Leishmania amazonensis; assay: Antileishmanial activity against Leishmania amazonensis promastigotes assessed as inhibition of parasite growth at 10 uM incubated for 48 hrs relative to control; type: functional; parameters: scale not given: the % may be the effect or the level left; conditions: not given

SMILES | Activity [%]
CCCCN(C(C)=O)C(C(=O)NCS(=O)(=O)c1ccc(C)cc1)c1ccccc1 (stereo unspecified) | 87.87

tested on: Human immunodeficiency virus 1; assay: Antiviral activity against HIV-1; type: functional, organism-based; conditions: not given

SMILES | pEC50
C[C@H]1C(=O)N[C@@H](CCCNC(=N)N)C(=O)N[C@@H](Cc2ccc3ccccc3c2)C(=O)NCC(=O)N[C@H](Cc2ccc(O)cc2)C(=O)N1CCCCCCN (cyclo([2Nal]G[dY][X1]R)) | 3.01
C[C@@H]1C(=O)N[C@@H](CCCNC(=N)N)C(=O)N[C@@H](Cc2ccc3ccccc3c2)C(=O)NCC(=O)N[C@H](Cc2ccc(O)cc2)C(=O)N1CCCCCCN (cyclo([2Nal]G[dY][X2]R)) | 4.28
C[C@@H]1C(=O)N[C@@H](CCCNC(=N)N)C(=O)N[C@@H](Cc2ccc3ccccc3c2)C(=O)NCC(=O)N[C@H](Cc2ccc(O)cc2)C(=O)N1CCCCCCNC(=N)N (cyclo([dY][dAla(N-(6-guanidinohexyl))]R[2Nal]G)) | 4.54

tested on: Leishmania amazonensis; assay: Antileishmanial activity against Leishmania amazonensis promastigotes assessed as inhibition of parasite growth at 10 uM incubated for 24 hrs relative to control; type: functional; parameters: scale not given: the % may be the effect or the level left; conditions: not given

SMILES | Activity [%]
CCCCN(C(C)=O)C(C(=O)NCS(=O)(=O)c1ccc(C)cc1)c1ccccc1 (stereo unspecified) | 66.83

tested on: Leishmania mexicana; assay: Antileishmanial activity against Leishmania mexicana promastigotes; type: functional; conditions: read-out: ED50 (the source's name)

SMILES | pEC50
C[C@@H](c1ccccc1)N(CC(N)=O)C(=O)CN(C(=O)CN(CCN)C(=O)CN(C(=O)CN(C(=O)CN(CCN)C(=O)CN(C(=O)CN(C(=O)CN(CCN)C(=O)CN(C(=O)CN(C(=O)CNCCN)[C@@H](C)c1ccccc1)[C@@H](C)c1ccccc1)[C@@H](C)c1ccccc1)[C@@H](C)c1ccccc1)[C@@H](C)c1ccccc1)[C@@H](C)c1ccccc1)[C@@H](C)c1ccccc1 (H-[Gly(N-2-aminoethyl)][Nspe][Nspe][Gly(N-2-aminoethyl)][Nspe][Nspe][Gly(N-2-aminoethyl)][Nspe][Nspe][Gly(N-2-aminoethyl)][Nspe][Nspe]-NH2) | 5.15

tested on: Plasmodium falciparum; assay: Antiplasmodial activity against Plasmodium falciparum 3D7 assessed as inhibition of parasite growth; type: functional, organism-based; conditions: not given

SMILES | pIC50
CN(C)c1ccc(C(=O)N(CC(=O)NCc2ccccc2)Cc2ccc(C(=O)NO)cc2)cc1 | 8.05
Cc1ccccc1C(=O)N(CC(=O)NC(C)(C)C)Cc1ccc(C(=O)NO)cc1 | 6.96
COc1ccccc1C(=O)N(CC(=O)NC(C)(C)C)Cc1ccc(C(=O)NO)cc1 | 6.60
CC(C)c1ccc(C(=O)N(CC(=O)NCc2ccccc2)Cc2ccc(C(=O)NO)cc2)cc1 | 8.30
Cc1cc(C)cc(C(=O)N(CC(=O)NCc2ccc(F)cc2)Cc2ccc(C(=O)NO)cc2)c1 | 7.10
Cc1cccc(CNC(=O)CN(Cc2ccc(C(=O)NO)cc2)C(=O)c2cc(C)cc(C)c2)c1 | 6.92
CC(C)c1ccc(C(=O)N(CC(=O)NC2CCCCC2)c2ccc(C(=O)NO)cc2)cc1 | 6.24
CN(C)c1ccc(C(=O)N(Cc2ccc(C(=O)NO)cc2)C(C)(C)C(=O)NC2CCCCC2)cc1 | 7.05
Cc1cc(C)cc(C(=O)N(CC(=O)NC2CCCCC2)c2ccc(C(=O)NO)cc2)c1 | 4.11
CNC(=O)CN(Cc1ccc(C(=O)NO)cc1)C(=O)c1ccccc1C | 7.15
Cc1ccc(CNC(=O)CN(Cc2ccc(C(=O)NO)cc2)C(=O)c2cc(C)cc(C)c2)cc1 | 7.38
Cc1cc(C)cc(C(=O)N(CC(=O)NCc2ccc(Cl)cc2)Cc2ccc(C(=O)NO)cc2)c1 | 7.05
COc1ccc(CNC(=O)CN(Cc2ccc(C(=O)NO)cc2)C(=O)c2cc(C)cc(C)c2)cc1 | 7.48
Cc1cc(C)cc(C(=O)N(CC(=O)NCc2ccc(C(C)(C)C)cc2)Cc2ccc(C(=O)NO)cc2)c1 | 6.96
CNC(=O)CN(Cc1ccc(C(=O)NO)cc1)C(=O)c1cc(C)cc(C)c1 | 7.30
Cc1cc(C)cc(CNC(=O)CN(Cc2ccc(C(=O)NO)cc2)C(=O)c2cc(C)cc(C)c2)c1 | 7.15
CN(C)c1ccc(C(=O)N(Cc2ccc(C(=O)NO)cc2)C(C(=O)NC2CCCCC2)c2ccccc2)cc1 (stereo unspecified) | 6.41
Cc1cc(C)cc(C(=O)N(CC(=O)NCc2cccnc2)Cc2ccc(C(=O)NO)cc2)c1 | 7.15
CC(C)(C)c1ccc(C(=O)N(CC(=O)NCc2ccccc2)Cc2ccc(C(=O)NO)cc2)cc1 | 8.10
Cc1cc(C)cc(C(=O)N(CC(=O)NCc2ccccc2)Cc2ccc(C(=O)NO)cc2)c1 | 7.43
